Source: ChEMBL document CHEMBL5465560, “Selectivity Literature for EUbOPEN Chemogenomic Library” (2024)

How the values were obtained:
[1] = target: Serine/threonine-protein kinase MARK2 (Homo sapiens) (UniProt Q7KZI7); assay: Selectivity interaction (ActivX KiNativ screen (kinase selectivity in THP-1 cell lysates)) EUB0000639a MARK2; format: subcellular; conditions: lysate, at 5 µM
[2] = target: T1, Phosphatidylinositol 4,5-bisphosphate 3-kinase catalytic subunit delta isoform (Homo sapiens) (UniProt O00329); assay: Selectivity interaction (ActivX KiNativ screen (kinase selectivity in THP-1 cell lysates)) EUB0000639a PIK3CD; format: subcellular; conditions: lysate
T1 sequence (whole entry): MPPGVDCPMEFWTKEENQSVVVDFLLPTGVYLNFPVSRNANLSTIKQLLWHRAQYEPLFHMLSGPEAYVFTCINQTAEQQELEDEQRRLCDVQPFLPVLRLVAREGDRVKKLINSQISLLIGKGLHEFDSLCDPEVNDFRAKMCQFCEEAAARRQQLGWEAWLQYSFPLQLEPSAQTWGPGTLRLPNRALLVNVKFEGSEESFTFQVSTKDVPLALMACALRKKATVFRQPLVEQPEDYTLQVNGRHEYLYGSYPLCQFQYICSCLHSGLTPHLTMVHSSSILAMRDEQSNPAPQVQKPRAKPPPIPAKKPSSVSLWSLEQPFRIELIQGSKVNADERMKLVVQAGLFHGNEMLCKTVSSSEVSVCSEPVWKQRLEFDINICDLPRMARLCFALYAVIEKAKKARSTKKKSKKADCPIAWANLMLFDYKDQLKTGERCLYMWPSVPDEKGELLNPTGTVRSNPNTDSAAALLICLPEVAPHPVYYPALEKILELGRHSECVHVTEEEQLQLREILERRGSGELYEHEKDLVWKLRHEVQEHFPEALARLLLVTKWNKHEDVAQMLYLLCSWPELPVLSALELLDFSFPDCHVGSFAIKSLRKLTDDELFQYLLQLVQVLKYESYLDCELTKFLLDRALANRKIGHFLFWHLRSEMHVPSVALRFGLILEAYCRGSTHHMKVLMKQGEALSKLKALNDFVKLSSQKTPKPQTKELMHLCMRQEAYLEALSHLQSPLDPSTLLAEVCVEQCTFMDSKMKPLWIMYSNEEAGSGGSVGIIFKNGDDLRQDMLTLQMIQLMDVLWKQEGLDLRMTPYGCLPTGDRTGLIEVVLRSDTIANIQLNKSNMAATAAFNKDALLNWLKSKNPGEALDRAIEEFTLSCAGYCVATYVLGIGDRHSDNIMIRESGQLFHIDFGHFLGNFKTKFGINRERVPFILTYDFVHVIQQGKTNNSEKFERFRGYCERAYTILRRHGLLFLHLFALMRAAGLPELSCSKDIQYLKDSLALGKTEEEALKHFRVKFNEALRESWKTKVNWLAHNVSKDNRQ

[3] = target: Serine/threonine-protein kinase NIM1 (Homo sapiens, UniProt Q8IY84); assay: Selectivity interaction (KinomeScan (DiscoverX)) EUB0000092b NIM1K; conditions: at 10 µM
[4] = target: T2, Aurora kinase A (Homo sapiens) (UniProt O14965); assay: Selectivity interaction (KinomeScan (DiscoverX)) EUB0000618a STK6; conditions: at 10 µM
T2 sequence (whole entry): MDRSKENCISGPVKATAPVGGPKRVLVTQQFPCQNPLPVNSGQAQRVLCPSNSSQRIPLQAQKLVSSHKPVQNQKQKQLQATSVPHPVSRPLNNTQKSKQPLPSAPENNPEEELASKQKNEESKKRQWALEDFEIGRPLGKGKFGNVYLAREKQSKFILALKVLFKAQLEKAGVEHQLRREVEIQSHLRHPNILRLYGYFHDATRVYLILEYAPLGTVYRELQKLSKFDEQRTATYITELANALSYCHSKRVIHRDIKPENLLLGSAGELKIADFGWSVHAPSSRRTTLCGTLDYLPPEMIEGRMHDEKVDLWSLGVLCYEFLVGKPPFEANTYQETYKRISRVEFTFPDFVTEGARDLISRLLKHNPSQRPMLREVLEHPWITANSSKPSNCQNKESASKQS

[5] = target: Mitogen-activated protein kinase 14 (Homo sapiens, UniProt Q16539); assay: Selectivity interaction (KinomeScan (DiscoverX)) EUB0000655a MAPK14; conditions: at 10 µM
[6] = target: T3, Serine/threonine-protein kinase TAO2 (Homo sapiens) (UniProt Q9UL54); assay: Selectivity interaction (SelectScreen profiling (Invitrogen)) EUB0000607a TAOK2; conditions: at 2 µM
T3 sequence (whole entry): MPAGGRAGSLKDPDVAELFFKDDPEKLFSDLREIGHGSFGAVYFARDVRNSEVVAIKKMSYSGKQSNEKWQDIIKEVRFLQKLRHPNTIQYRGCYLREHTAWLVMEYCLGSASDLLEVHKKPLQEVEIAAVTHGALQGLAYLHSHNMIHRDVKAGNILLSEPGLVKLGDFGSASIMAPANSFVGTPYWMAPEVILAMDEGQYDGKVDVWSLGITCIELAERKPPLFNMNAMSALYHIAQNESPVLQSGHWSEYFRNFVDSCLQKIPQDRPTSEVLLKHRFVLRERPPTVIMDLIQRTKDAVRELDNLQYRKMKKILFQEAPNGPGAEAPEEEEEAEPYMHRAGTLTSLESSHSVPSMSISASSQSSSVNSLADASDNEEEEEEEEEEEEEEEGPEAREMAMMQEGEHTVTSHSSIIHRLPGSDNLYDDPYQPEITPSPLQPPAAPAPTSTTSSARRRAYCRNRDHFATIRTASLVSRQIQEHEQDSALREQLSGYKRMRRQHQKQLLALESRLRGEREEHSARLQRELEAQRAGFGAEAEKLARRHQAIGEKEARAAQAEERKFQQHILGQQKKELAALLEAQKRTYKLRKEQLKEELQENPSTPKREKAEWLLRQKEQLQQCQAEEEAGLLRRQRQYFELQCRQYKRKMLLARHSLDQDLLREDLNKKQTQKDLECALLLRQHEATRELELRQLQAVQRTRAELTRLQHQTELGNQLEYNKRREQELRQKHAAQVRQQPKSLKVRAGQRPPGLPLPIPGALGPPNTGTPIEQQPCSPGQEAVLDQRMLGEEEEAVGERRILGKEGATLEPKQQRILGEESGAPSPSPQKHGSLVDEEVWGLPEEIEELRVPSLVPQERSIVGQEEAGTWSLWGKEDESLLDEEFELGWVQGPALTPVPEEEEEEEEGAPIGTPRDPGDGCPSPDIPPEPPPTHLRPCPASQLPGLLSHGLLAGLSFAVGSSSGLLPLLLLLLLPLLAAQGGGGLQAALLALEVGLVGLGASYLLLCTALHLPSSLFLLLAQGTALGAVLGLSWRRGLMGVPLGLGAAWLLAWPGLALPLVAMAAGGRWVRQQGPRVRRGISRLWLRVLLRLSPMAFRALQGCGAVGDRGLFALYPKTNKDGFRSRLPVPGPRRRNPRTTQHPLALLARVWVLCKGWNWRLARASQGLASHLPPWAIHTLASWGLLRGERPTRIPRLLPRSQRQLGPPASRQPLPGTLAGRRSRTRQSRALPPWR

Serine/threonine-protein kinase MARK2 (Homo sapiens), sequence (Q7KZI7 whole entry, canonical isoform): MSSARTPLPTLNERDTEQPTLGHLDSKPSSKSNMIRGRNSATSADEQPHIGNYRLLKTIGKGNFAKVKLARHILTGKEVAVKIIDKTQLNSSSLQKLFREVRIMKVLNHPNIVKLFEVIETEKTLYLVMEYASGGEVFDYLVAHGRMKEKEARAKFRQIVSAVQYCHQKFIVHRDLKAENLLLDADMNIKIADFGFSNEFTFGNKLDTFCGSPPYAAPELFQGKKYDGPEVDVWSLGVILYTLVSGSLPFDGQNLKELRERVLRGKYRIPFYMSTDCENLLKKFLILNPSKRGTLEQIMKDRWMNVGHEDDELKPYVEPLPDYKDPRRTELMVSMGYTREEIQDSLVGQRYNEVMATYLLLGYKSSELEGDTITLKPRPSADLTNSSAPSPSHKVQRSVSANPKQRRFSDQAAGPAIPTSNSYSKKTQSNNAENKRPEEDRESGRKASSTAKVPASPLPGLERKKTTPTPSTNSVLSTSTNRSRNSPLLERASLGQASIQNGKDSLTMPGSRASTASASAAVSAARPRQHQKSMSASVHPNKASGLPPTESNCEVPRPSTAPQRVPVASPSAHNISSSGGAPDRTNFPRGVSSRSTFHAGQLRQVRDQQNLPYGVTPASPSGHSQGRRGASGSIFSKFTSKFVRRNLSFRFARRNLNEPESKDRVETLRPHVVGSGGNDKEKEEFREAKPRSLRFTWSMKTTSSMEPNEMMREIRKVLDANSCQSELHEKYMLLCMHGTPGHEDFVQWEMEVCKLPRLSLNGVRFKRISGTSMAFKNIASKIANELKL
Serine/threonine-protein kinase NIM1, sequence (Q8IY84 whole entry): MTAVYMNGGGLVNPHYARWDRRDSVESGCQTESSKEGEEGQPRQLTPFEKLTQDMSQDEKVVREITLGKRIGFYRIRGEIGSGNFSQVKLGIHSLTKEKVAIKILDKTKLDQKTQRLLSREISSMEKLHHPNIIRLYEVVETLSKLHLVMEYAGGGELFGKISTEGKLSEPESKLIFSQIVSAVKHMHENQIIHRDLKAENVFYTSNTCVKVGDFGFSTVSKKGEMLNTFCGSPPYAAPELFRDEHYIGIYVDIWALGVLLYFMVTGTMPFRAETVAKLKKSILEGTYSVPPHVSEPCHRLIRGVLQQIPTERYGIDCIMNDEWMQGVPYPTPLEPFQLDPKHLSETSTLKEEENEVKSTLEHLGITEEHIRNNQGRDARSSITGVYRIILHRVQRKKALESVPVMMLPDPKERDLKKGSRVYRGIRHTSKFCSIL
Mitogen-activated protein kinase 14, sequence (Q16539 whole entry): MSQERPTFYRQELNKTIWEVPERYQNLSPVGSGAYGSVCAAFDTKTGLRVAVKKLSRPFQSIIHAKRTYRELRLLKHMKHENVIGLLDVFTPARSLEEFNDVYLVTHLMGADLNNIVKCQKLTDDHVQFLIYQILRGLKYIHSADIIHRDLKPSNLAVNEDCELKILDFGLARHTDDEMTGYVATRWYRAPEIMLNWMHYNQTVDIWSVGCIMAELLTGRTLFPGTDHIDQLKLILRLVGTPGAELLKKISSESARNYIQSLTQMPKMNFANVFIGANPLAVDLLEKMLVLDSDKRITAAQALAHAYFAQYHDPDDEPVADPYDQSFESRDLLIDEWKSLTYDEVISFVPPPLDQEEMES

CC[C@@H]1[C@H](F)C(=O)N[C@@H]1COc1nccc2cc(C(N)=O)c(OC)cc12 [ZIMLOVISERTIB]
% of inhibition [1]: 51.5%
% of inhibition ([2]; at 0.01 µM): -1.5%
% of inhibition ([2]; at 0.04 µM): -1.9%
% of inhibition ([2]; at 0.2 µM): -4.2%
% of inhibition ([2]; at 1 µM): 17.9%
% of inhibition ([2]; at 5 µM): 22.6%

CCC(=O)N1CCN(c2ccc(-n3c(=O)ccc4cnc5ccc(-c6cnc7ccccc7c6)cc5c43)cc2C(F)(F)F)CC1
% of control [3]: 84%

O[C@H]1CC[C@H](Nc2ncc3nc(Nc4c(F)cc(F)cc4F)n([C@H]4CCOC4)c3n2)CC1
% of control [4]: 91%

CN(C)CCOc1ccc(-c2nc(-c3ccncc3)c(-c3ccc4c(c3)CC/C4=N\O)[nH]2)cc1
% of control [5]: 85%

CNC(=O)Nc1ccc(-c2nc(N3CC4CCC(C3)O4)c3cnn(C4CCC5(CC4)OCCO5)c3n2)cc1
% of inhibition [6]: 3%
